Reference: EP0400190A1, “New water-soluble derivatives of nabumetone, a process for their preparation and pharmaceutical compositions which contain them” (MAGIS FARMACEUTICI S.p.A., priority 1989, dated 1990)

Experiments:
[1] = system: edema induced in the rat by formalin; experiment: Anti-inflammatory activity on formalin-induced edema; format: in vivo; conditions: read-out: ED₅₀
Source text: The anti-inflammatory activity of these enamines was studied in comparison with acetylsalicylic acid on edema induced in the rat by formalin.

[2] = system: mice; experiment: Analgesic activity, Writhing test using p-phenylquinone; format: in vivo; conditions: Mus musculus, po, mice treated orally, read-out: ED₅₀
Method: The analgesic activity was measured by the Writhing test using p-phenylquinone on mice treated orally with the nabumetone enamines in comparison with acetylsalicylic acid, the results showing an ED₅₀ (mg/Kg) for the enamines of about 80 whereas for acetylsalicylic acid the value is about 106.1.

Question: Which ED50 [1] does the source give for `CC(=O)Oc1ccccc1C(=O)O` [acetylsalicylic acid] here?
Answer: ~313 mg/kg

Question: What about the ED50 [2] of the same molecule?
Answer: ~106 mg/kg
